Experimental data reported in US11766419B2, “Mebeverine as soluble epoxide hydrolase inhibitor” (Banasthali Vidyapith, priority 2021, dated 2023).

Columns and labels:
Assay type in all cases: in vivo, rat
[1] = test system: DOCA-induced hypertensive rats; assay: SOD and TBAR level in heart and aortic tissue, DOCA induced hypertension
Procedure: Wistar albino male rats were divided into four experimental groups (I, II, III and IV). Groups (II-IV) were administered with DOCA (20 mg/kg in 5% DMSO) intraperitoneally and drinking water was replaced by 2% NaCl. […] At the end of this experimental period SAP, DAP and MAP were measured. The results are tabulated below in Tables 4A, 4B and 4C, respectively, and are plotted in FIGS. 4a, 4b and 4c. Additionally, the levels of oxidative stress biomarkers, superoxide dismutase (SOD) and thiobarbituric acid (TBARs)s in heart and aortic tissue were also measured (Cayman commercial kit). The results are tabulated in Table 5 and plotted in FIGS. 5a and 5b (TBAR level) and 6a and 6b (SOD level).

[2] = test system: Lipopolysaccharide (LPS)-induced hyperlipidaemic rats; assay: LPS-induced hyperlipidemia, serum lipid profile and CRI/AI; conditions: for AI: Atherogenic index; for CRI: Coronary risk index; for Cholesterol / HDL / LDL / Triglycerides / VLDL: serum
Procedure: Wistar albino male rats were divided into different experimental groups—Single dose of 10 mg/kg, i.p. of LPS was administered to all the groups (II-IV). After 3 days of induction mebeverine was orally given twice daily for 5 days to groups (III-IV). After last dose, on day 5, blood samples were collected from all experimental rats for analysis of serum lipid profile parameters and CRI/AI. The results are tabulated below in Table 8 and plotted in FIGS. 11 (a-e) and 12. Biochemical estimations in hepatic tissue samples were also analyzed.

[3] = test system: angiotensin-II induced hypertensive rats; assay: Angiotensin II induced hypertension, blood pressure
Procedure: Wistar albino male rats were divided into four experimental groups (I, II, III and IV). Groups II-IV were infused with Angiotensin II at a continuous rate via subcutaneously implanted osmotic mini pump for 7 days. After induction of high blood pressure, (>140/90 mm of Hg), Groups III and IV were administered with mebeverine twice daily for five consecutive days at 10 mg/kg and 20 mg/kg doses respectively. At the end of this experimental period SAP, DAP and MAP were measured. The results are tabulated below in Tables 3A, 3B, and 3C, respectively, and are plotted in FIGS. 3a, 3b and 3c.

[4] = test system: Triton WR-1339 induced hyperlipidaemic rats; assay: TBAR and SOD level in hepatic tissue, Triton WR-1339 induced hyperlipidemia
Procedure: (§1) Wistar albino male rats were divided into four experimental groups (I, II, III and IV). Groups II-IV were treated with intraperitoneal injection of Triton WR-1339 (200 mg/kg in 2% gum acacia) in 12 h fasted rats to induce hyperlipidemia. Group III and IV were orally administered with Mebeverine twice daily for 3 days at 10 mg/kg and 20 mg/kg. After 48 h, induction of hyperlipidemia blood serum was investigated for total cholesterol and triglycerides. Blood samples were collected from all experimental rats on day 6 (4 days after start of treatment), and, subsequently, serum was separated for analysis of serum lipid profile parameters and CRI/AI. Liver was excised and stored at −80° C. until biochemical parameters in hepatic tissue samples were analysed. The results are tabulated below in Table 6 and plotted in FIGS. 7 (a-e) and 8.
In addition, the effect on oxidative stress markers on hepatic tissue were also observed. The results are shown in Table 7 and plotted in FIGS. 9 and 10.

[5] = test system: Triton WR-1339 induced hyperlipidaemic rats; assay: Triton WR-1339 induced hyperlipidemia, serum lipid profile and CRI/AI; conditions: for CRI: Coronary risk index; for Cholesterol / HDL / LDL / Triglycerides / VLDL: serum
Procedure: as §1

[6] = 10 mg/kg orally twice daily for 5 days
[7] = 20 mg/kg orally twice daily for 5 days
[8] = 10 mg/kg orally twice daily for 3 days
[9] = 20 mg/kg orally twice daily for 3 days

CCN(CCCCOC(=O)c1ccc(OC)c(OC)c1)C(C)Cc1ccc(OC)cc1 (stereo not drawn) [Mebeverine]
SOD Level ([1]; Aortic tissue, 10 mg/kg): 70.20 ± 0.28 U/g tissue | TBAR level ([1]; Aortic tissue, 10 mg/kg): 0.87 ± 0.02 nmol/mg protein | SOD Level ([1]; Aortic tissue, 20 mg/kg): 90.21 ± 0.21 U/g tissue | TBAR level ([1]; Aortic tissue, 20 mg/kg): 0.71 ± 0.03 nmol/mg protein | SOD Level ([1]; Heart tissue, 10 mg/kg): 73.04 ± 0.29 U/g tissue | TBAR level ([1]; Heart tissue, 10 mg/kg): 0.88 ± 0.03 nmol/mg protein | SOD Level ([1]; Heart tissue, 20 mg/kg): 86.24 ± 0.37 U/g tissue | TBAR level ([1]; Heart tissue, 20 mg/kg): 0.68 ± 0.01 nmol/mg protein | SOD activity (in words) ([1]; aortic and heart tissue): significant dose dependent increase | TBARs concentration (in words) ([1]; aortic and heart tissue): significant dose dependent decrease | AI [2, 6]: 2.14 ± 0.02 | AI [2, 7]: 1.01 ± 0.17 | CRI [2, 6]: 3.14 ± 0.14 | CRI [2, 7]: 2.01 ± 0.17 | Cholesterol [2, 6]: 132.5 ± 4.24 mg/dL | HDL [2, 6]: 42.0 ± 1.41 mg/dL | LDL [2, 6]: 58.3 ± 3.25 mg/dL | Triglycerides [2, 6]: 158.5 ± 3.58 mg/dL | VLDL [2, 6]: 31.6 ± 0.34 mg/dL | Cholesterol [2, 7]: 103.50 ± 1.41 mg/dL | HDL [2, 7]: 51.00 ± 3.53 mg/dL | LDL [2, 7]: 30.0 ± 3.25 mg/dL | Triglycerides [2, 7]: 110.00 ± 2.82 mg/dL | VLDL [2, 7]: 22.0 ± 0.56 mg/dL | DAP ([3]; 10 mg/kg twice daily, D 0): 189 ± 13.43 mm Hg | MAP ([3]; 10 mg/kg twice daily, D 0): 200 ± 8.40 mm Hg | SAP ([3]; 10 mg/kg twice daily, D 0): 213 ± 6.360 mm Hg | DAP ([3]; 10 mg/kg twice daily, D 3): 168 ± 6.86 mm Hg | MAP ([3]; 10 mg/kg twice daily, D 3): 182 ± 12.02 mm Hg | SAP ([3]; 10 mg/kg twice daily, D 3): 208 ± 6.970 mm Hg | DAP ([3]; 10 mg/kg twice daily, D 4): 95 ± 11.70 mm Hg | MAP ([3]; 10 mg/kg twice daily, D 4): 110 ± 16.78 mm Hg | SAP ([3]; 10 mg/kg twice daily, D 4): 146 ± 5.370 mm Hg | DAP ([3]; 10 mg/kg twice daily, D 5): 92 ± 4.24 mm Hg | MAP ([3]; 10 mg/kg twice daily, D 5): 108 ± 1.07 mm Hg | SAP ([3]; 10 mg/kg twice daily, D 5): 140 ± 2.120 mm Hg | DAP ([3]; 20 mg/kg twice daily, D 0): 152 ± 1.40 mm Hg | MAP ([3]; 20 mg/kg twice daily, D 0): 170 ± 4.30 mm Hg | SAP ([3]; 20 mg/kg twice daily, D 0): 193 ± 3.530 mm Hg | DAP ([3]; 20 mg/kg twice daily, D 3): 109 ± 28.80 mm Hg | MAP ([3]; 20 mg/kg twice daily, D 3): 128 ± 7.07 mm Hg | SAP ([3]; 20 mg/kg twice daily, D 3): 147 ± 5.600 mm Hg | DAP ([3]; 20 mg/kg twice daily, D 4): 86 ± 1.70 mm Hg | MAP ([3]; 20 mg/kg twice daily, D 4): 98 ± 1.51 mm Hg | SAP ([3]; 20 mg/kg twice daily, D 4): 123 ± 7.28 mm Hg | DAP ([3]; 20 mg/kg twice daily, D 5): 82 ± 3.53 mm Hg | MAP ([3]; 20 mg/kg twice daily, D 5): 92 ± 2.82 mm Hg | SAP ([3]; 20 mg/kg twice daily, D 5): 119 ± 7.07 mm Hg | Effect on high blood pressure (in words) ([3]; both 10 mg/kg and 20 mg/kg, P<0.001): reduces the high blood pressure | SOD ([4]; 10 mg/kg): 65.13 ± 0.22 U/g protein | TBAR ([4]; 10 mg/kg): 0.78 ± 0.01 nmol/mg protein | SOD ([4]; 20 mg/kg): 87.27 ± 0.30 U/g protein | TBAR ([4]; 20 mg/kg): 0.70 ± 0.01 nmol/mg protein | HDL (in words) ([5]; 10 mg/kg): increases HDL | triglycerides, cholesterol, LDL and VLDL and CRI/AI (in words) ([5]; 10 mg/kg): markedly decreases | AT [5, 8]: 2.32 ± 0.02 | AT [5, 9]: 0.79 ± 0.19 | CRI [5, 8]: 3.32 ± 0.02 | CRI [5, 9]: 1.79 ± 0.02 | Cholesterol [5, 8]: 108.00 ± 8.48 mg/dL | HDL [5, 8]: 32.50 ± 2.12 mg/dL | LDL [5, 8]: 55.90 ± 9.75 mg/dL | Triglycerides [5, 8]: 98.00 ± 9.8 mg/dL | VLDL [5, 8]: 19.60 ± 3.25 mg/dL | Cholesterol [5, 9]: 95.00 ± 4.94 mg/dL | HDL [5, 9]: 53.00 ± 1.59 mg/dL | LDL [5, 9]: 26.90 ± 1.83 mg/dL | Triglycerides [5, 9]: 77.00 ± 9.19 mg/dL | VLDL [5, 9]: 15.40 ± 1.83 mg/dL
